From patent US10723705B2, “Heterocyclic compounds and uses thereof” (Incyte Corporation, priority 2015, dated 2020)
Read-outs that look alike come from different tables or passages of the source.

Biological target: Human recombinant Histone Deacetylase 8 (HDAC8) (Homo sapiens (Human), UniProt Q9BY41)
Experiment: HDAC8 Enzymatic Assay (HDAC-Glo I/II luminescence)
Format: biochemical
Protocol: HDAC-Glo™ I/II Assay Kit was purchased from Promega Corporation (Madison, Wis.), including the following components: HDAC-Glo I/II Buffer (25 mM Tris buffer, pH 8.0, supplemented with 137 mM: NaCl, 2.7 mM KCl, 1% v/v Triton X-100 and 1 mM: MgCl2), luminogenic substrates Boc-GAK(Ac)-aminoluciferin (HDAC-Glo I/II substrate), proprietary developer reagent (containing trypsin). Human recombinant Histone Deacetylase 8 (HDAC8) was purchased from Enzo Life Sciences (Plymouth Meeting, Pa.).
The HDAC8 reaction was performed at room temperature in white 384-well polystyrene, flat-bottom microtiter plate (Greiner Bio-one, Monroe, N.C.) in a final volume of 20 μL. Test compounds were first diluted serially in DMSO and 100 nL were transferred to the plate wells by Echo 550 (Labcyte, Sunnyvale, Calif.) before the addition of other reaction components. The final concentration of DMSO in the assay was 0.5%. The HDAC-Glo I/II assay reagent was prepared by rehydration of lyophilized HDAC-Glo I/II substrate in 10 mL. HDAC-Glo I/II assay buffer followed with the addition of 10 μL of developer reagent. 10 uL of 3 nM HDAC8 in the HDAC-Glo I/II assay buffer were first dispensed into the microliter plate containing the compounds and incubated at room temperature for 30 min. The reactions were initiated with the addition of 10 uL HDAC-Glo I/II assay reagent with Multidrop (Thermo, Waltham, Mass.). The final concentration of HDAC8 and HDAC-Glo I/II substrate in the reaction were 1.5 nM and 50 μM, respectively. The assay plate was mixed for 1 min by orbital shaking (500 rpm) and centrifuged for 1 min at 1500 rpm. After 15 min at room temperature, luminescence signals were measured on TopCount (Perkin Elmer). Wells with no compound served as the positive controls and wells containing no HDAC8 were used as negative controls. IC50 determination was performed by fitting the curve of percentage control activity versus the log of the compound concentration using the GraphPad Prism 6.0 software.

[1] = class symbols, Table 14, read-out: HDAC8 IC50

Sequence of Human recombinant Histone Deacetylase 8 (HDAC8) (Q9BY41 whole entry): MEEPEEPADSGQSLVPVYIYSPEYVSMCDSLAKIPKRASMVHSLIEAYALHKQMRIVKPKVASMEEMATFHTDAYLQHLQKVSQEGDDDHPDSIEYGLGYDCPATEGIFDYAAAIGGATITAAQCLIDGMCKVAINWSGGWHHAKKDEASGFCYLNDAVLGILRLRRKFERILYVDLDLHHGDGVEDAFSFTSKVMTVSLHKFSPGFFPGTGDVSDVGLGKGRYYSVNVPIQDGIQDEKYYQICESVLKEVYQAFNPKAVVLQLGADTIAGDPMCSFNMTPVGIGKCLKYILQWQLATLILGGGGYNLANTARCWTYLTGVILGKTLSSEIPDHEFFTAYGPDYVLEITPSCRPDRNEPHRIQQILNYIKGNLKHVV

IC50 (HDAC8, read-out: IC50) [nM] | IC50 [1] [nM] | Structure (SMILES)
– | 200 to 500 | O=C(NO)C(Cc1ccccc1)n1cc2ccccc2n1 (centres unmarked) [Compound I-0002, N-hydroxy-2-(2H-indazol-2-yl)-3-phenylpropanamide]
22 | ≤ 50 | O=C(NO)C(Cc1ccccc1)n1nc2ccc(Cl)cc2c1C#CC1CC1 (centres unmarked) [Compound I-0005, 2-[5-Chloro-3-(cyclopropylethynyl)-2H-indazol-2-yl]-N-hydroxy-3-phenylpropanamide]
– | 200 to 500 | O=C(NO)C(Cc1ccccc1)n1cc2ccc(-c3ccccc3)cc2n1 (centres unmarked) [Compound I-0006, N-hydroxy-3-phenyl-2-(6-phenyl-2H-indazol-2-yl)propanamide]
– | 50 to 200 | O=C(NO)C(Cc1ccccc1)n1nc(C#CC2CC2)c2cc(Cl)ccc21 (centres unmarked) [Compound I-0009, 2-(5-chloro-3-(cyclopropylethynyl)-1H-indazol-1-yl)-N-hydroxy-3-phenylpropanamide]
– | 200 to 500 | N#Cc1ccc(-c2ccc3c(cnn3C(Cc3ccccc3)C(=O)NO)c2)cc1 (centres unmarked) [Compound I-0015, 2-(5-(4-cyanophenyl)-1H-indazol-1-yl)-N-hydroxy-3-phenylpropanamide]
443 | 200 to 500 | CCc1ccc2cnn(C(Cc3ccccc3)C(=O)NO)c2c1 (centres unmarked) [Compound I-0018, 2-(6-Ethyl-1H-indazol-1-yl)-N-hydroxy-3-phenylpropanamide]

Second part, the compound before the results:

Structure (SMILES) | IC50 (HDAC8, read-out: IC50) [nM] | IC50 [1] [nM]
O=C(NO)C(Cc1ccccc1)n1ncc2cc(Cl)ccc21 (centres unmarked) [Compound I-0001, 2-(5-Chloro-1H-indazol-1-yl)-N-hydroxy-3-phenylpropanamide] | 141 | 50 to 200
O=C(NO)C(Cc1ccccc1)n1cc2cc(Cl)ccc2n1 (centres unmarked) [Compound I-0003, 2-(5-Chloro-2H-indazol-2-yl)-N-hydroxy-3-phenylpropanamide] | 338 | 200 to 500
O=C(NO)C(Cc1ccccc1)n1cc2ccc(Br)cc2n1 (centres unmarked) [Compound I-0004, 2-(6-bromo-2H-indazol-2-yl)-N-hydroxy-3-phenylpropanamide] | – | 200 to 500
O=C(NO)C(Cc1ccccc1)n1cc2ccc(-c3cncnc3)cc2n1 (centres unmarked) [Compound I-0007, N-hydroxy-3-phenyl-2-(6-(pyrimidin-5-yl)-2H-indazol-2-yl)propanamide] | – | 200 to 500
O=C(NO)C(Cc1ccccc1)n1cc2ccc(-c3cccnc3)cc2n1 (centres unmarked) [Compound I-0008, N-hydroxy-3-phenyl-2-(6-(pyridin-3-yl)-2H-indazol-2-yl)propanamide] | – | 200 to 500
Cn1nccc1-c1ccc2c(cnn2C(Cc2ccccc2)C(=O)NO)c1 (centres unmarked) [Compound I-0010, N-hydroxy-2-(5-(1-methyl-1H-pyrazol-5-yl)-1H-indazol-1-yl)-3-phenylpropanamide] | – | 50 to 200
O=C(NO)C(Cc1ccccc1)n1ncc2cc(-c3ccncc3)ccc21 (centres unmarked) [Compound I-0011, N-hydroxy-3-phenyl-2-(5-pyridin-4-yl-1H-indazol-1-yl)propanamide] | 87 | 50 to 200
O=C(NO)C(Cc1ccccc1)n1ncc2cc(-c3cncnc3)ccc21 (centres unmarked) [Compound I-0012, N-hydroxy-3-phenyl-2-(5-(pyrimidin-5-yl)-1H-indazol-1-yl)propanamide] | – | 50 to 200
O=C(NO)C(Cc1ccccc1)n1ncc2cc(-c3ccccc3)ccc21 (centres unmarked) [Compound I-0013, N-hydroxy-3-phenyl-2-(5-phenyl-1H-indazol-1-yl)propanamide] | – | 200 to 500
O=C(NO)C(Cc1ccccc1)n1ncc2cc(-c3c(F)cccc3F)ccc21 (centres unmarked) [Compound I-0014, 2-(5-(2,6-difluorophenyl)-1H-indazol-1-yl)-N-hydroxy-3-phenylpropanamide] | – | 200 to 500
Cc1ccc2c(cnn2C(Cc2ccccc2)C(=O)NO)c1 (centres unmarked) [Compound I-0016, N-hydroxy-2-(5-methyl-1H-indazol-1-yl)-3-phenylpropanamide] | – | 50 to 200
O=C(NO)C(Cc1ccccc1)n1ncc2cc(Br)ccc21 (centres unmarked) [Compound I-0017, 2-(5-bromo-1H-indazol-1-yl)-N-hydroxy-3-phenylpropanamide] | – | 50 to 200
